Reference: patent EP2931723B1, “NEW BICYCLIC COMPOUNDS AND THEIR USE AS ANTIBACTERIAL AGENTS AND -LACTAMASE INHIBITORS” (Fedora Pharmaceuticals Inc., priority 2012, dated 2014)

Tests used:
Experiment in all cases: MIC, antibacterial and synergistic activity
Format in all cases: cell-based
E. coli JMI 10770 = conditions: Escherichia coli, JMI10770; E. coli JMI 10770 (CTX-M15 (Hyper ESBL)); substance alone
P. aerug JMI 2686 [1] = conditions: P. aerug JMI 2686 (KPC-2 (Cpase))
How it was run: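 This antibacterial synergy assay measured the minimum inhibitory concentration of antibiotics combined with the disclosed inhibitor compounds. The inhibitor was held at 4 µg/mL throughout. The aim was to see whether the added compound strengthened the antibiotic's action against the tested bacteria.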

K. pneumo JMI 2699 = K. pneumo JMI 2699 (VIM-1, CTX-M3)
How it was run: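 Tested compound used as an adjuvant at 4 µg/mL with a range of antibiotics; MIC recorded per strain (MBL producers).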

K. pneumo JMI 2673 = K. pneumo JMI 2673 (CTX-M14 (ESBL))
How it was run: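 Antibacterial synergy was assessed by testing a β-lactamase inhibitor compound in combination with antibiotics. The inhibitor was held at a fixed concentration of 4 µg/mL, and the minimum inhibitory concentration of the partner antibiotic was determined in its presence.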

E. coli JMI 10768 [2] = conditions: E. coli JMI 10768 (CTX-M15 (Weak ESBL))
Procedure: In the Tables 10 - 12, compounds herein disclosed were tested in combination with various antibiotics against metallo β-lactamase producing bacteria. Table 3: Synergy of the inhibitor Ex. 1 (4 µg/mL) in combination with antibiotics

K. pneumo JMI 2681 = K. pneumo JMI 2681 (Oxa-48 (Cpase))
A. baumanii JMI 2659 = A. baumanii JMI 2659 (Ges-14 (Cpase))
K. pneumo JMI 4088 = K. pneumo JMI 4088 (KPC-3 (Cpase)); substance alone
E. coli JMI 10768 [3] = conditions: E. coli JMI 10768 (CTX-M15 (Weak ESBL)); Meropenem + inhibitor at 4 µg/mL
K. pneumo JMI 2674 = K. pneumo JMI 2674 (CTX-M15 (ESBL)); substance alone
K. pneumo JMI 4106 = K. pneumo JMI 4106 (KPC-3, TEM-1, SHV-12, SHV-141)
E. coli JMI 10767 = E. coli JMI 10767 (Wt)
K.pneumo JMI 4109 = K.pneumo JMI 4109 (SHV-1, SHV-12); substance alone
E.coli JMI 4103 = E.coli JMI 4103 (KPC-2, Tem-1, CMY-Type)
E. coli ATCC 25922 = E. coli ATCC 25922 (Wt)
K. pneumo JMI 2697 = K. pneumo JMI 2697 (IMP-4 (Cpase))
Procedure: (§1) In the Tables 10 - 12, compounds herein disclosed were tested in combination with various antibiotics against metallo β-lactamase producing bacteria.

K. pneumo JMI 2693 = K. pneumo JMI 2693 (NDM-1 (Cpase))
Procedure: as §1

E. coli JMI 2692 = E. coli JMI 2692 (NDM-1, TEM-1, CTX-M-15)
Procedure: as §1

P. aerug JMI 2686 [4] = conditions: P. aerug JMI 2686 (KPC-2 (Cpase)); substance alone
P. aerug JMI 149 = P. aerug JMI 149 (Bla+++D+)
E. cloacae JMI 36 = E. cloacae JMI 36 (P99)
E. coli JMI 11103 = system: E. coli JMI 11103
[5] = Aztreonam + inhibitor at 4 µg/mL
[6] = Ceftazidime + inhibitor at 4 µg/mL
[7] = Meropenem + inhibitor at 4 µg/mL

## O=C(NO[C@H]1CCNC1)[C@@H]1CC[C@@H]2CN1C(=O)N2OS(=O)(=O)O [Ex. 1, (2S,5R)-7-Oxo-N-[(3S)-pyrrolidin-3-yloxy]-6-(sulfooxy)-1,6-diazabicyclo[3.2.1]octane-2-carboxamide]
E. coli JMI 10770
  MIC: 8 µg/mL
P. aerug JMI 2686 [1]; [5]
  MIC Aztreonam + inhibitor: >4 µg/mL
P. aerug JMI 2686 [1]; [6]
  MIC Ceftazidime + inhibitor: 16 µg/mL
P. aerug JMI 2686 [1]; [7]
  MIC Meropenem + inhibitor: >2 µg/mL
K. pneumo JMI 2699; [5]
  MIC Aztreonam + inhibitor: 0.5 µg/mL
K. pneumo JMI 2699; [6]
  MIC Ceftazidime + inhibitor: 16 µg/mL
K. pneumo JMI 2699; [7]
  MIC Meropenem + inhibitor: 2 µg/mL
K. pneumo JMI 2699; substance alone, read-out: MIC
  MIC: 8 µg/mL
K. pneumo JMI 2673; [5]
  MIC Aztreonam + inhibitor: ≤.062 µg/mL
K. pneumo JMI 2673; [6]
  MIC Ceftazidime + inhibitor: ≤0.25 µg/mL
K. pneumo JMI 2673; [7]
  MIC Meropenem + inhibitor: ≤.031 µg/mL
E. coli JMI 10768 [2]; [5]
  MIC Aztreonam + inhibitor: ≤.062 µg/mL
E. coli JMI 10768 [2]; [6]
  MIC Ceftazidime + inhibitor: ≤0.25 µg/mL
E. coli JMI 10768 [2]; Escherichia coli, JMI10768, substance alone
  MIC: 8 µg/mL
K. pneumo JMI 2681; [5]
  MIC Aztreonam + inhibitor: 4 µg/mL
K. pneumo JMI 2681; [6]
  MIC Ceftazidime + inhibitor: 4 µg/mL
K. pneumo JMI 2681; [7]
  MIC Meropenem + inhibitor: >2 µg/mL
K. pneumo JMI 2681; substance alone, read-out: MIC
  MIC: > 16 µg/mL
A. baumanii JMI 2659; [5]
  MIC Aztreonam + inhibitor: >4 µg/mL
A. baumanii JMI 2659; [6]
  MIC Ceftazidime + inhibitor: >16 µg/mL
A. baumanii JMI 2659; [7]
  MIC Meropenem + inhibitor: 2 µg/mL
A. baumanii JMI 2659; Acinetobacter baumannii, JMI2659, substance alone, read-out: MIC
  MIC: > 16 µg/mL
K. pneumo JMI 4088
  MIC: 4 µg/mL
E. coli JMI 10768 [3]
  MIC Meropenem + inhibitor: ≤.031 µg/mL
K. pneumo JMI 2674
  MIC: > 16 µg/mL
K. pneumo JMI 4106; [5]
  MIC Aztreonam + inhibitor: 0.25 µg/mL
K. pneumo JMI 4106; [6]
  MIC Ceftazidime + inhibitor: ≤0.25 µg/mL
K. pneumo JMI 4106; [7]
  MIC Meropenem + inhibitor: ≤.031 µg/mL
K. pneumo JMI 4106; substance alone, read-out: MIC
  MIC: 16 µg/mL
E. coli JMI 10767; [7]
  MIC Meropenem + inhibitor: ≤.031 µg/mL
E. coli JMI 10767; Escherichia coli, JMI10767, substance alone
  MIC: 8 µg/mL
K.pneumo JMI 4109
  MIC: 4 µg/mL
E.coli JMI 4103; [5]
  MIC Aztreonam + inhibitor: >4 µg/mL
E.coli JMI 4103; [6]
  MIC Ceftazidime + inhibitor: 8 µg/mL
E.coli JMI 4103; [7]
  MIC Meropenem + inhibitor: ≤.031 µg/mL
E.coli JMI 4103; Escherichia coli, JMI4103, substance alone
  MIC: 16 µg/mL
E. coli ATCC 25922; [5]
  MIC Aztreonam + inhibitor: ≤.062 µg/mL
E. coli ATCC 25922; [6]
  MIC Ceftazidime + inhibitor: ≤0.25 µg/mL
E. coli ATCC 25922; [7]
  MIC Meropenem + inhibitor: ≤.031 µg/mL
E. coli ATCC 25922; Escherichia coli, ATCC25922, substance alone
  MIC: 8 µg/mL
K. pneumo JMI 2697; [5]
  MIC Aztreonam + inhibitor: 0.25 µg/mL
K. pneumo JMI 2697; [6]
  MIC Ceftazidime + inhibitor: 16 µg/mL
K. pneumo JMI 2697; [7]
  MIC Meropenem + inhibitor: >2 µg/mL
K. pneumo JMI 2697; substance alone
  MIC: 16 µg/mL
K. pneumo JMI 2693; [5]
  MIC Aztreonam + inhibitor: 0.125 µg/mL
K. pneumo JMI 2693; [6]
  MIC Ceftazidime + inhibitor: ≤0.25 µg/mL
K. pneumo JMI 2693; [7]
  MIC Meropenem + inhibitor: 0.062 µg/mL
K. pneumo JMI 2693; substance alone
  MIC: > 16 µg/mL
E. coli JMI 2692; [5]
  MIC Aztreonam + inhibitor: 0.25 µg/mL
E. coli JMI 2692; [6]
  MIC Ceftazidime + inhibitor: ≤0.25 µg/mL
E. coli JMI 2692; [7]
  MIC Meropenem + inhibitor: ≤.031 µg/mL
E. coli JMI 2692; Escherichia coli, JMI2692, substance alone, read-out: MIC
  MIC: 4 µg/mL
P. aerug JMI 2686 [4]
  MIC: > 16 µg/mL
P. aerug JMI 149; [5]
  MIC Aztreonam + inhibitor: >4 µg/mL
P. aerug JMI 149; [6]
  MIC Ceftazidime + inhibitor: 4 µg/mL
P. aerug JMI 149; [7]
  MIC Meropenem + inhibitor: 0.5 µg/mL
P. aerug JMI 149; substance alone, read-out: MIC
  MIC: > 16 µg/mL
E. cloacae JMI 36; [5]
  MIC Aztreonam + inhibitor: 0.25 µg/mL
E. cloacae JMI 36; [6]
  MIC Ceftazidime + inhibitor: 1 µg/mL
E. cloacae JMI 36; [7]
  MIC Meropenem + inhibitor: 0.062 µg/mL
E. cloacae JMI 36; Enterobacter cloacae, JMI36, substance alone, read-out: MIC
  MIC: > 16 µg/mL
E. coli JMI 11103; E. coli JMI 11103 (CTX-M15 (Intermediate ESBL)), Aztreonam + inhibitor at 4 µg/mL
  MIC Aztreonam + inhibitor: ≤.062 µg/mL
E. coli JMI 11103; E. coli JMI 11103 (CTX-M15 (Intermediate ESBL)), Ceftazidime + inhibitor at 4 µg/mL
  MIC Ceftazidime + inhibitor: ≤0.25 µg/mL
E. coli JMI 11103; E. coli JMI 11103 (CTX-M15 (Intermediate ESBL)), Meropenem + inhibitor at 4 µg/mL
  MIC Meropenem + inhibitor: ≤.031 µg/mL
E. coli JMI 11103; Escherichia coli, JMI11103, E. coli JMI 11103 (CTX-M15 (Intermediate ESBL)), substance alone
  MIC: 8 µg/mL
